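Abbreviation: GI50, concentration required for 50% inhibition of growth. TGI is the concentration that stops growth completely.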
Assays:
Experiment in all cases: NCI tumour cell line growth inhibition, 384-well format
[1] = tested on: SF-295 CNS
[2] = tested on: UACC-62 melanoma
[3] = tested on: K-562 leukemia
[4] = tested on: SK-MEL-5 melanoma
[5] = tested on: LOX IMVI melanoma
[6] = tested on: NCI-H226 lung
[7] = tested on: RPMI-8226 leukemia
[8] = tested on: HOP-62 NSCLC
[9] = tested on: KM12 colon
[10] = tested on: HCC-2998 colon
[11] = tested on: IGROV1 ovarian
[12] = tested on: HOP-92 NSCLC
[13] = tested on: COLO 205 colon

CC(C)n1cc(-c2ccc3c(c2)N(C)CC3)c2c(NS(=O)(=O)c3ccn(C)n3)ccnc21
GI50 [1]: 37 µM
TGI [1]: > 91.2 µM
GI50 [2]: 63.4 µM
TGI [2]: > 100 µM
GI50 [3]: 53.2 µM
TGI [3]: > 100 µM
GI50 [4]: > 100 µM
TGI [4]: > 100 µM
GI50 [5]: 65.8 µM
TGI [5]: > 100 µM
GI50 [6]: > 96.1 µM
TGI [6]: > 100 µM
GI50 [7]: 21.8 µM
TGI [7]: 52.9 µM
GI50 [8]: > 78.1 µM
TGI [8]: > 100 µM
GI50 [9]: 78 µM
TGI [9]: > 100 µM
GI50 [10]: > 100 µM
TGI [10]: > 100 µM
GI50 [11]: > 74.4 µM
TGI [11]: > 100 µM
GI50 [12]: > 62.9 µM
TGI [12]: > 100 µM
GI50 [13]: > 78.9 µM
TGI [13]: > 100 µM

Cc1nc2ccc(-n3ncc(C(=O)c4cc5ccccc5[nH]4)c3N)cc2[nH]1
GI50 [1]: 10.4 µM
TGI [1]: 26.9 µM
GI50 [2]: 5.92 µM
TGI [2]: 18.6 µM
GI50 [3]: 3.95 µM
TGI [3]: 14.3 µM
GI50 [4]: 4.2 µM
TGI [4]: 17.4 µM
GI50 [5]: 3.27 µM
TGI [5]: 8.34 µM
GI50 [6]: 5.45 µM
TGI [6]: 29.5 µM
GI50 [7]: 6.35 µM
TGI [7]: 17.3 µM
GI50 [8]: 12.2 µM
TGI [8]: 29.6 µM
GI50 [9]: 3.3 µM
TGI [9]: 12.3 µM
GI50 [10]: 13.1 µM
TGI [10]: 30.8 µM
GI50 [11]: 6 µM
TGI [11]: 22.8 µM
GI50 [12]: 10.3 µM
TGI [12]: 30.3 µM
GI50 [13]: 5.86 µM
TGI [13]: 30.2 µM
